Measurements: ChEMBL document CHEMBL5465560, “Selectivity Literature for EUbOPEN Chemogenomic Library” (2024)

How the values were obtained:
[1] = target: T1, Scaffold protein ILK (Homo sapiens) (UniProt Q13418); experiment: Selectivity interaction (Kinase panel (KiNativ target engagement assay in Jurkat cells)) EUB0001635a ILK; format: cell-based; details: Selectivity number of off-targets 0.0, Selectivity number of targets 233.0, Source Knowledge https://www.sciencedirect.com/science/article/pii/S2451945619300674?via%3Dihub, at 1 µM
T1 sequence (whole entry): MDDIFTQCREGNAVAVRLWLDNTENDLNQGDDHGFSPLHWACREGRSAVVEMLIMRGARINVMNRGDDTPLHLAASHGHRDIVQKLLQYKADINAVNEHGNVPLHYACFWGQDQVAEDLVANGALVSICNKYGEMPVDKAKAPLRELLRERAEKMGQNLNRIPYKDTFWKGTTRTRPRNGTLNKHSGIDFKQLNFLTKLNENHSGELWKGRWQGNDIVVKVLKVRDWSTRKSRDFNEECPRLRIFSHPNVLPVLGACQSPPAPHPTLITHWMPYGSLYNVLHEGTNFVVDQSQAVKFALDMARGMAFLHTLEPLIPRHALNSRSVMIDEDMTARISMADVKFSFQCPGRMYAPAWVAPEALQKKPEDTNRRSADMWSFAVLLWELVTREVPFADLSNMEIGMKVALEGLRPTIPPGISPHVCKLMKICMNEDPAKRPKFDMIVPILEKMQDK

[2] = target: Ribosomal protein S6 kinase alpha-5 (Homo sapiens) (UniProt O75582); experiment: Selectivity interaction (KinomeScan (DiscoverX)) EUB0000229b RPS6KA5; details: at 10 µM
Ribosomal protein S6 kinase alpha-5 (Homo sapiens), sequence (O75582 whole entry, looked up): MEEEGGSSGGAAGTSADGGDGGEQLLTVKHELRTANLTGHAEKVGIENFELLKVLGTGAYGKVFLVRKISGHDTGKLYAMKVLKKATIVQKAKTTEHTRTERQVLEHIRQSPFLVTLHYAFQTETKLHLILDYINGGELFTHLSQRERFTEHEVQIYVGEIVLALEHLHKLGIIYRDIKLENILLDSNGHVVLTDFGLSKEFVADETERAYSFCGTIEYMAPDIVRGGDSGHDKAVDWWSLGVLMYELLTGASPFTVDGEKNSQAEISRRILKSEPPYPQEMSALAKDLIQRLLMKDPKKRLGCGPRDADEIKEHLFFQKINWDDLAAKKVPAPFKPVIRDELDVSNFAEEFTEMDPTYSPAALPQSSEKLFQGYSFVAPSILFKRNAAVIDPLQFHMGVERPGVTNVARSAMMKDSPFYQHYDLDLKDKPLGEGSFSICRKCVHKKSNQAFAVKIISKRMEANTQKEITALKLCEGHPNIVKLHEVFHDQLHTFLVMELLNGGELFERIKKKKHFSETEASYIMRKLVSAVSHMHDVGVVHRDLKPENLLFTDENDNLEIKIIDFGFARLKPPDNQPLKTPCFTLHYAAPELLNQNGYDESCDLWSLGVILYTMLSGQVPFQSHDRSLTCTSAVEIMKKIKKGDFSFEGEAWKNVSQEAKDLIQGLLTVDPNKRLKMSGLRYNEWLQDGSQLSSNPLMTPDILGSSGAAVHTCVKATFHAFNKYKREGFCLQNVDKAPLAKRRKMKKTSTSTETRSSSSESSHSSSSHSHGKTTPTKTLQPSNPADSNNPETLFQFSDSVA

[3] = target: Cyclin-dependent kinase 17 (Homo sapiens) (UniProt Q00537); experiment: Selectivity interaction (KinomeScan (DiscoverX)) EUB0000229b CDK17; details: at 10 µM
[4] = target: Phosphatidylinositol 4,5-bisphosphate 3-kinase catalytic subunit gamma isoform (Homo sapiens) (UniProt P48736); experiment: Selectivity interaction (KinomeScan (DiscoverX)) EUB0000695a PIK3CG; details: at 100 nM
[5] = target: T2, Tyrosine-protein kinase ITK/TSK (Homo sapiens) (UniProt Q08881); experiment: Selectivity interaction (KinomeScan (DiscoverX)) EUB0001079a ITK; details: at 1 µM
T2 sequence (whole entry): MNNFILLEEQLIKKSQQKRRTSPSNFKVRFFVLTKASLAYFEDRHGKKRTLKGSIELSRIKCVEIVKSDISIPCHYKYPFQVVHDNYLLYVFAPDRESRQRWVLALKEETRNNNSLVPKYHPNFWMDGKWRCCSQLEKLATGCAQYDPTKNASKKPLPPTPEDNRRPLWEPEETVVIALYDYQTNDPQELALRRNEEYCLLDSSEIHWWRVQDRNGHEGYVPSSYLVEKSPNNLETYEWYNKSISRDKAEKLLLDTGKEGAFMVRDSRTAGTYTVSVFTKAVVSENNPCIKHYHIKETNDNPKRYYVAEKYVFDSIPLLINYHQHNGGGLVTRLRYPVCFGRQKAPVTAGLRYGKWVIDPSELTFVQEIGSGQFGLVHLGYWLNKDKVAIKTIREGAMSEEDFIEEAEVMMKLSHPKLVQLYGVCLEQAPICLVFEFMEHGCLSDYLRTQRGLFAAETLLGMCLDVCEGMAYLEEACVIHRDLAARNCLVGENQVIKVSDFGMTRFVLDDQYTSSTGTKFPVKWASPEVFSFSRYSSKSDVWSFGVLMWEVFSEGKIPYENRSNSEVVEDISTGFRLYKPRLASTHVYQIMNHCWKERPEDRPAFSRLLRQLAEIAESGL

[6] = target: Vascular endothelial growth factor receptor 2 (Homo sapiens, UniProt P35968); experiment: Selectivity interaction (Kinase panel (Z-LYTE Assay)) EUB0001632a KDR; details: at 10 µM
[7] = target: Phosphorylase b kinase gamma catalytic chain, skeletal muscle/heart isoform (Homo sapiens) (UniProt Q16816); experiment: Selectivity interaction (Kinase panel (Z-LYTE Assay)) EUB0001632a PHKG1; details: at 10 µM
Phosphorylase b kinase gamma catalytic chain, skeletal muscle/heart isoform (Homo sapiens), sequence (Q16816 whole entry, looked up, canonical isoform): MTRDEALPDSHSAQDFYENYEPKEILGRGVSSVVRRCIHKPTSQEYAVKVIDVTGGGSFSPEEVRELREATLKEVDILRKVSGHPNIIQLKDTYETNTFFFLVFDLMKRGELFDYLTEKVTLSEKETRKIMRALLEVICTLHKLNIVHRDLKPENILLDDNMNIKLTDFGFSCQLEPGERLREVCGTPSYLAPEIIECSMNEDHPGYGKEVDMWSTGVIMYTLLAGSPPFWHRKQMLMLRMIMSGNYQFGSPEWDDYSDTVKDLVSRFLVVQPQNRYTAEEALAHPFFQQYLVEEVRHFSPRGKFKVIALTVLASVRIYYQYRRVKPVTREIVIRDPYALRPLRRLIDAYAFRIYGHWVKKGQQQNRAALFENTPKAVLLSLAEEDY

[8] = target: Serine/threonine-protein kinase/endoribonuclease IRE1 (Homo sapiens) (UniProt O75460); details: at 10 µM
Serine/threonine-protein kinase/endoribonuclease IRE1 (Homo sapiens), sequence (O75460 19-977 limits assumed): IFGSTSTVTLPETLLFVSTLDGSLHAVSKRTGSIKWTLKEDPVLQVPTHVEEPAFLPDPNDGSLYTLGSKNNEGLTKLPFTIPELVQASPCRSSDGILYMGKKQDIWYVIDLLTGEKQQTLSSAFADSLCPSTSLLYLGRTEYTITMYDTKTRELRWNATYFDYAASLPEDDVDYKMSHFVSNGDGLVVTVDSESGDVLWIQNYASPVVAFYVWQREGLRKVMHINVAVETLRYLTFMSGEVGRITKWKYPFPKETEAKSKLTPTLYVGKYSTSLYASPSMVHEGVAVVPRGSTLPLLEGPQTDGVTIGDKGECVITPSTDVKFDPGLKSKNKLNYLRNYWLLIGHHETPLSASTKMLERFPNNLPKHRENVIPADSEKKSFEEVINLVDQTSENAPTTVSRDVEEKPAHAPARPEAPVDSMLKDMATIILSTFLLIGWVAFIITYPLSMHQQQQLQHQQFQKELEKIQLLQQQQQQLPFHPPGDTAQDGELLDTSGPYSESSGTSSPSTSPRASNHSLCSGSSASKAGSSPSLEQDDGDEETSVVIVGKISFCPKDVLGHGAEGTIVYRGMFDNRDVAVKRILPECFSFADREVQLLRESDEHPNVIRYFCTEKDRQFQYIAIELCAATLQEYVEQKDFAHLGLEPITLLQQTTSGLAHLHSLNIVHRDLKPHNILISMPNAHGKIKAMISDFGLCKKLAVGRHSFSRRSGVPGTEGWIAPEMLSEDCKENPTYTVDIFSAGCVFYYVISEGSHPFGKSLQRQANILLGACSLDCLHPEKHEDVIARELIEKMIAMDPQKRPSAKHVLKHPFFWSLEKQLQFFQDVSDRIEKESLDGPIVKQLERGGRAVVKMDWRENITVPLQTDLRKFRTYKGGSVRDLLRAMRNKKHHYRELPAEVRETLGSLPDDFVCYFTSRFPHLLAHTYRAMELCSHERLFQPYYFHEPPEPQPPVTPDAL

[9] = target: Serine/threonine-protein kinase MARK2 (Homo sapiens) (UniProt Q7KZI7); experiment: Selectivity interaction (Kinase screening (Nanosyn)) EUB0000604a MARK2
Serine/threonine-protein kinase MARK2 (Homo sapiens), sequence (Q7KZI7 whole entry): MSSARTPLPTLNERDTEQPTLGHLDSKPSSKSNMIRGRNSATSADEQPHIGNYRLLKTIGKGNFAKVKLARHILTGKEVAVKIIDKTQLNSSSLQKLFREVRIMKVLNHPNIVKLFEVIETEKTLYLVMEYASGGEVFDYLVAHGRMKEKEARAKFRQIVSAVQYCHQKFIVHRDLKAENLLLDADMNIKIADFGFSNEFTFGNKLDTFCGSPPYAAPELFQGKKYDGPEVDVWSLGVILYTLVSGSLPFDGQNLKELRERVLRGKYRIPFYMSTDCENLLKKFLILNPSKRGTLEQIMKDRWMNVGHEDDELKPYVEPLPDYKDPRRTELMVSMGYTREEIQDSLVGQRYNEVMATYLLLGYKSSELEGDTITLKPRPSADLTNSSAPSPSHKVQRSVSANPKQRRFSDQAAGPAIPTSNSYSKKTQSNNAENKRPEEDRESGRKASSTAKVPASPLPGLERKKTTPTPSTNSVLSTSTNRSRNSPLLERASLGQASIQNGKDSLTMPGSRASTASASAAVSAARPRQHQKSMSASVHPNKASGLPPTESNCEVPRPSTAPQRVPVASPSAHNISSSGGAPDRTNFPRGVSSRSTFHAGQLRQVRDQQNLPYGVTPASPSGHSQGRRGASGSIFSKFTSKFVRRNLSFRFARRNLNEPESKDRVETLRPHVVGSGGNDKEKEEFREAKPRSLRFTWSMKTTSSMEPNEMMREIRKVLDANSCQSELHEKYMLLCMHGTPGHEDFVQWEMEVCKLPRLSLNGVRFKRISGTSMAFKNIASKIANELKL

[10] = target: Tyrosine-protein kinase Fes/Fps (Homo sapiens) (UniProt P07332); experiment: Selectivity interaction (Millipore kinase profiler) EUB0000124b FES; details: at 10 µM
[11] = target: Serine/threonine-protein kinase pim-1 (Homo sapiens, UniProt P11309); experiment: Selectivity interaction (Upstate Kinase Profiler service (Millipore)) EUB0000056c PIM1; details: at 1 µM
Serine/threonine-protein kinase pim-1, sequence (P11309 whole entry, looked up): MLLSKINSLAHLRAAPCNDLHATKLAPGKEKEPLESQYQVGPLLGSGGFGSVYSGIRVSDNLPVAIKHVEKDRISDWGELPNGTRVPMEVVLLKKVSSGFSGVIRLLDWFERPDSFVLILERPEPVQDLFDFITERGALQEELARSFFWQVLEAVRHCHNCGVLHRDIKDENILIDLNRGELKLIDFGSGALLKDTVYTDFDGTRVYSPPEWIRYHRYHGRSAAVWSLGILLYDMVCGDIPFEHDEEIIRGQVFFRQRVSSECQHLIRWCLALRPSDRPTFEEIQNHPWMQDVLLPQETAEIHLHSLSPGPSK

[12] = target: RAC-alpha serine/threonine-protein kinase (Homo sapiens, UniProt P31749); experiment: Selectivity interaction (ProQinase) EUB0000171b AKT1
RAC-alpha serine/threonine-protein kinase, sequence (P31749 whole entry): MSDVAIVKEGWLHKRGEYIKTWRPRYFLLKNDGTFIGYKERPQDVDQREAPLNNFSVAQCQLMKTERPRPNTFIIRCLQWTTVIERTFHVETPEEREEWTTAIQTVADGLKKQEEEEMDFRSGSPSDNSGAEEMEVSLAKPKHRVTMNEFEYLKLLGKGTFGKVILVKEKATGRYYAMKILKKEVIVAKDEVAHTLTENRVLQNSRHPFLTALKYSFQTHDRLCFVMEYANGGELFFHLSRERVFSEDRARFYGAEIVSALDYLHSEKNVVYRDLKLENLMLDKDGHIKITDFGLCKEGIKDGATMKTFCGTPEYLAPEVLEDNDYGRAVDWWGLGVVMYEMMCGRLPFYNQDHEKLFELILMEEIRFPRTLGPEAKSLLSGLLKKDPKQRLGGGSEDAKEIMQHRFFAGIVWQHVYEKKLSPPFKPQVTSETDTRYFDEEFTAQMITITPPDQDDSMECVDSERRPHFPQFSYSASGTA

[13] = target: MAP/microtubule affinity-regulating kinase 3 (Homo sapiens) (UniProt P27448); experiment: Selectivity interaction (ActivX KiNativ screen (ex vivo kinase selectivity in human PBMCs)) EUB0001619a MARK3; format: cell-based; details: PBMC, at 1 µM
[14] = target: T3, Aurora kinase A (Homo sapiens) (UniProt O14965); experiment: Selectivity interaction (Kinase panel (DSF assay)) EUB0001489b STK6
T3 sequence (whole entry): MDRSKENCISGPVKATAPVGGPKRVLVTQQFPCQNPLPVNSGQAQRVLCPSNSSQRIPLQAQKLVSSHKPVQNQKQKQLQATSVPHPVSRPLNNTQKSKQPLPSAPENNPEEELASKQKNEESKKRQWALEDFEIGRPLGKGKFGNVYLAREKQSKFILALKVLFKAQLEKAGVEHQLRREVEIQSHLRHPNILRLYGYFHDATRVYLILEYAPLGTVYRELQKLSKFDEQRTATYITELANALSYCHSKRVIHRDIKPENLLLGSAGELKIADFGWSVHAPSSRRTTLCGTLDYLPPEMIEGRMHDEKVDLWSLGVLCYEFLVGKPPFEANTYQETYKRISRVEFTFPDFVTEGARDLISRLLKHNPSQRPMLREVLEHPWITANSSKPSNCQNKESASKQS

[15] = target: Cyclin-dependent kinase 8 (Homo sapiens, UniProt P49336); experiment: Selectivity interaction (KinomeScan (DiscoverX)) EUB0000618a CDK8; details: at 10 µM
Cyclin-dependent kinase 8, sequence (P49336 whole entry): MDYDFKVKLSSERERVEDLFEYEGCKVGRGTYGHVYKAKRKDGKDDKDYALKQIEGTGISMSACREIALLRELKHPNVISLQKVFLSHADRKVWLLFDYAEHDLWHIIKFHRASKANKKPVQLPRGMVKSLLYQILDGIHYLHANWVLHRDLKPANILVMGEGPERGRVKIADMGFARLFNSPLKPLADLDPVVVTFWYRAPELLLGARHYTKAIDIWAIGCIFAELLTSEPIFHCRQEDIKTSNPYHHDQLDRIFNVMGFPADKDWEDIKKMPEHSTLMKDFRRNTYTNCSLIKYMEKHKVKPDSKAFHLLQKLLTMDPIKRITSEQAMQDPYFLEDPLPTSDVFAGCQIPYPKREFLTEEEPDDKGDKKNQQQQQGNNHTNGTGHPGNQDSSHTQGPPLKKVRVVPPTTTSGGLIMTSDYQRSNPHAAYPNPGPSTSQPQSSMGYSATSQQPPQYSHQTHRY

[16] = target: Cyclin-dependent kinase 7 (Homo sapiens, UniProt P50613); experiment: Selectivity interaction (KinomeScan (DiscoverX)) EUB0000618a CDK7; details: at 10 µM
Cyclin-dependent kinase 7, sequence (P50613 whole entry): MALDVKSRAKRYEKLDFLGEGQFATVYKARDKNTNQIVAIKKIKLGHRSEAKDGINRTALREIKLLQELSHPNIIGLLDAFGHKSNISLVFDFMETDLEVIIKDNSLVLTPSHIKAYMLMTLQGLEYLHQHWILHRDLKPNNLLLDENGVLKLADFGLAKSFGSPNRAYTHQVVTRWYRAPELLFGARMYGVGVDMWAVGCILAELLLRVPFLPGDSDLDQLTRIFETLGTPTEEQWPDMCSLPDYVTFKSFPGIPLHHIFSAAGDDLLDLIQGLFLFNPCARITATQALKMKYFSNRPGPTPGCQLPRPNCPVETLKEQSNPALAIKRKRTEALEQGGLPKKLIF

[17] = target: Serine/threonine-protein kinase B-raf (Homo sapiens) (UniProt P15056); experiment: Selectivity interaction (KinomeScan (DiscoverX)) EUB0000092b BRAF; details: at 10 µM
[18] = target: Atypical kinase COQ8A, mitochondrial (Homo sapiens, UniProt Q8NI60); experiment: Selectivity interaction (Ambit KINOMEscan and KiNATiv profiling in Jurkat cells) EUB0000090b ADCK3; format: cell-based; details: at 1 µM
Atypical kinase COQ8A, mitochondrial, sequence (Q8NI60 163-647 limits assumed): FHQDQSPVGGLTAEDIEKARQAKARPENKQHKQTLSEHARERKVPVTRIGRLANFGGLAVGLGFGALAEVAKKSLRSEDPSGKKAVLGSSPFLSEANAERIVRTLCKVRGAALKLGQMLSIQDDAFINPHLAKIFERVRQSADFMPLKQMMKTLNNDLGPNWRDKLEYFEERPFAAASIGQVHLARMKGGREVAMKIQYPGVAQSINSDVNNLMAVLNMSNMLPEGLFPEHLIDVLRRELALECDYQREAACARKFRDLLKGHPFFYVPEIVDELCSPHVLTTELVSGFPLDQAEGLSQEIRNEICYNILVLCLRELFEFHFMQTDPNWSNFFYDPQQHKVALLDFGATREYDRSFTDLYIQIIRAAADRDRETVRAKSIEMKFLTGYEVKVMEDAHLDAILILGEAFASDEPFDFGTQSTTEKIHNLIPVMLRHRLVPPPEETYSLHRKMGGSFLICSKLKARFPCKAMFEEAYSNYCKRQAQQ

[19] = target: Tyrosine-protein kinase JAK2 (Homo sapiens, UniProt O60674); experiment: Selectivity interaction (Ambit KINOMEscan and KiNATiv profiling in Jurkat cells) EUB0000090b JAK2; format: cell-based; details: at 1 µM

Compound `C=CC(=O)Nc1ccc(C(=O)Nc2[nH]nc3c2CN(C(=O)N[C@H](CN(C)C)c2ccccc2)C3(C)C)cc1` has a % of engagement [1] of -20.3%.

Compound `COc1cc(N(C)c2ccnc3ccc(C(F)(F)F)cc23)cc(OC)c1OC` has a % binding [2] of 87% and a % binding [3] of 88%.

`Cc1cc(F)c(C(=O)Nc2cccc(-c3nncn3C(C)C)n2)cc1-n1cnc(C2CC2)c1` showed a % of control [4] of 100%.

For `Nc1cnc(N2CCc3cc(S(=O)(=O)Nc4c(F)cc(Cl)cc4F)cc(N4CCCC4=O)c32)nc1` [TP-020n], the % of control [5] was 100%.

For `Cn1cc(-n2cnc3c(NCc4nc5cc(Cl)c(Cl)cc5[nH]4)nc(N4CCOCC4)nc32)cn1`, the % of control [6] was 0.298% and the % of control [7] was -6.26%.

`Cc1cc([C@@H](C)Nc2ccccc2C(=O)O)c2nc(N3CCOCC3)cc(=O)n2c1` [AZD-6482] showed a % of control [8] of 91%.

`Cc1cnc(Nc2ccc(F)cc2Cl)nc1-c1c[nH]c(C(=O)N[C@H](CO)c2cccc(Cl)c2)c1` was tested, and the % of inhibition [9] was 5%.

`CC(=O)Nc1cccc(-n2c(=O)n(C3CC3)c(=O)c3c(Nc4ccc(I)cc4F)n(C)c(=O)c(C)c32)c1` was tested, and the % of control [10] was 95%.

`Cc1ccc(-c2ccc3c(ccc4sc5c(c43)NC[C@@H](C)NC5=O)n2)cn1` showed a % of inhibition [11] of 89%.

Compound `C=CC(=O)Nc1cccc(C(=O)Nc2ccc(Nc3cc(-c4[nH]c(SC)nc4C)ccn3)cc2)c1` has a % of control ([12]; at 1 µM) of 84% and a % of control ([12]; at 5 µM) of 69%.

Work on `N#Cc1cccc(-c2c[nH]c3ncnc(N4CCOCC4)c23)c1` yielded a % of inhibition [13] of 24%.

Work on `CN1CCN(C(=O)c2ccc3cc2OCCOCCNc2ccn4ncc-3c4n2)CC1` yielded a dTM [14] of 4.2 K.

`O[C@H]1CC[C@H](Nc2ncc3nc(Nc4c(F)cc(F)cc4F)n([C@H]4CCOC4)c3n2)CC1` was tested, and the % of control [15] was 100% and the % of control [16] was 100%.

In the case of `CCC(=O)N1CCN(c2ccc(-n3c(=O)ccc4cnc5ccc(-c6cnc7ccccc7c6)cc5c43)cc2C(F)(F)F)CC1`, the % of control [17] is reported as 59%.

`CN(C)C/C=C/C(=O)Nc1ccc(C(=O)N2CCCC(Nc3ncc(Cl)c(-c4c[nH]c5ccccc45)n3)C2)cc1` (stereo not given) showed a % of control [18] of 90% and a % of control [19] of 89%.
